Several values for one entry are separate records, joined by “and”; a condition that tells them apart may be missing. Equal values may be shown once.
Assays:
[1] = Body weight and tolerability of tumour bearing mice; settings: for % Body Weight Change: 10 mg/kg po qd, 10 mg/kg
Protocol: All datapoints shown, n = 3 per dose and timepoint.
Female BALB/c nude mice, NOD SCID and NSG mice 6-8 weeks old from Beijing Vital River/VR Laboratory Animal Co., LTD, Beijing AniKeeper Biotech Co., Ltd., Shanghai Sino-British SIPPR/BK Laboratory Animal Co., LTD and The Jackson Laboratory were used. Animals were housed in polycarbonate cages, in an environmentally monitored, well ventilated room maintained at a constant temperature of 20-26°C and relative humidity of 40-80%. Fluorescent lighting provided illumination approximately 12 hours per day. Each mouse was inoculated at the right flank with tumor cells (2x10^6-1x10^7) in 100-200 µL of media/PBS supplemented with Matrigel (1:1). Treatments were started when the average tumor size reached 100-250 mm^3. […] Mice on studies were weighed and tumor measurements collected twice weekly. […] For efficacy study, Animals were assigned to study groups using stratified randomization based upon their tumor volumes (n=3-10/group). […] Animals were treated for 28 days (or up to 110 for selected models) or an earlier time if tumor burden reached humane endpoint. […] Body weights were collected twice a week during the study.

[2] = molecular target: KRAS^G12V (Homo sapiens, UniProt P01116+P62937, G12V); assay: RAS binding affinity of compound-bound CYPA (Kd2), SPR; parameters: His6-TEV (N); made in house; host or cells: BL21(DE3) Escherichia coli; settings: steady state, (95% CI)
[3] = test system: A375 cells; assay: Cellular ERK phosphorylation (pERK); format: cell-based, human
[4] = test system: KRAS^G12X PDAC, CRC and NSCLC xenograft models; assay: Panel of 15 KRAS^G12X CDX and PDX xenograft models; format: in vivo, mouse; settings: 10 mg/kg
Protocol: Xenograft studies were conducted at GenenDesign, Pharmaron, Wuxi AppTec, the laboratory of P. Lito, and the laboratory of C. Ambrogio. […] All procedures related to animal handling, care and treatment were conducted in compliance with all applicable regulations and guidelines of the relevant Institutional Animal Care and Use Committee (IACUC). […] Experimental details are supplied in the Supplementary Methods.

CCn1c(-c2cc(N3CCN(C4CC4)CC3)cnc2[C@H](C)OC)c2c3cc(ccc31)-c1csc(n1)C[C@H](NC(=O)[C@H]1[C@@H]3COC[C@@H]31)C(=O)N1CCC[C@H](N1)C(=O)OCC(C)(C)C2 [RMC-7977]
% Body Weight Change ([1]; NCI-H441 tumor bearing BALB/c nude mice, day 4, individual animals): -4.55% and -0.24% and 1.44% and 1.89% and -1.08% and 0.22% and -2.41% and 1.83%
% Body Weight Change ([1]; NCI-H441 tumor bearing BALB/c nude mice, day 7, individual animals): -9.19% and -1.70% and 0.68% and 1.75% and -4.40% and -1.88% and -16.62% and -2.26%
% Body Weight Change ([1]; NCI-H441 tumor bearing BALB/c nude mice, day 11, individual animals): -4.55% and -4.86% and 0.27% and 1.46% and -4.26% and -1.16% and -0.43% and 0.65%
% Body Weight Change ([1]; NCI-H441 tumor bearing BALB/c nude mice, day 14, individual animals): -3.50% and -2.87% and 1.04% and 3.87% and -4.31% and -0.18% and -2.76% and -1.00%
% Body Weight Change ([1]; NCI-H441 tumor bearing BALB/c nude mice, day 18, individual animals): -0.17% and 7.78% and -13.00% and 19.16% and -2.62% and 1.70% and -3.06% and 3.09%
% Body Weight Change ([1]; NCI-H441 tumor bearing BALB/c nude mice, day 21, individual animals): -1.14% and -0.19% and 3.16% and 1.56% and -3.51% and 3.31% and -2.50% and 1.35%
% Body Weight Change ([1]; NCI-H441 tumor bearing BALB/c nude mice, day 25, individual animals): -5.65% and 1.02% and 4.20% and 4.72% and -0.28% and 1.43% and -6.63% and 1.91%
% Body Weight Change ([1]; NCI-H441 tumor bearing BALB/c nude mice, day 28, individual animals): -1.90% and 1.90% and 4.11% and 4.06% and 0.28% and 2.82% and -8.01% and 4.78%
% Body Weight Change ([1]; PDAC G12D tumor bearing BALB/c nude mice, day 3, individual animals): -4.17%
% Body Weight Change ([1]; PDAC G12D tumor bearing BALB/c nude mice, day 7, individual animals): -4.17%
% Body Weight Change ([1]; PDAC G12D tumor bearing BALB/c nude mice, day 14, individual animals): -8.33%
% Body Weight Change ([1]; PDAC G12D tumor bearing BALB/c nude mice, day 17, individual animals): -8.33%
% Body Weight Change ([1]; PDAC G12D tumor bearing BALB/c nude mice, day 21, individual animals): -8.00% and 0.00%
% Body Weight Change ([1]; PDAC G12D tumor bearing BALB/c nude mice, day 24, individual animals): -8.00%
% Body Weight Change ([1]; PDAC G12D tumor bearing BALB/c nude mice, day 28, individual animals): 4.00%
effect on body weights ([1]; all 15 KRAS^G12X xenograft models, 10 mg kg^−1): minimal effect on body weights
tolerability ([1]; repeated daily administration at 10 mg kg^−1, NCI-H441 model): well tolerated
Kd [2]: 85 nM
inhibition of downstream signalling (pERK) ([3]; A375, BRAF^V600E, RAS-independent): No inhibition
EC50 ([3]; Homo sapiens, A-375, A375 (BRAF^V600E)): > 10000 nM
% Tumor Volume Change ([4]; CRC039, RMC-7977 10 mg/kg po qd, day 0 on study, individual animals): 241.9% and 219.3% and 159.4%
% Tumor Volume Change ([4]; CRC039, RMC-7977 10 mg/kg po qd, day 4 on study, individual animals): 220.3% and 125.3% and 145.8%
% Tumor Volume Change ([4]; CRC039, RMC-7977 10 mg/kg po qd, day 7 on study, individual animals): 121.8% and 118.8% and 123%
% Tumor Volume Change ([4]; CRC039, RMC-7977 10 mg/kg po qd, day 11 on study, individual animals): 74.4% and 112.7% and 94.2%
% Tumor Volume Change ([4]; CRC039, RMC-7977 10 mg/kg po qd, day 14 on study, individual animals): 80.2% and 106.6% and 94.1%
% Tumor Volume Change ([4]; CRC039, RMC-7977 10 mg/kg po qd, day 18 on study, individual animals): 81.1%
% Tumor Volume Change ([4]; PDAC G12D, BALB/c nude mice, 10 mg/kg po qd, day 0, individual animals): 153.24% and 151.4%
% Tumor Volume Change ([4]; PDAC G12D, BALB/c nude mice, 10 mg/kg po qd, day 3, individual animals): 209.83% and 173.4%
% Tumor Volume Change ([4]; PDAC G12D, BALB/c nude mice, 10 mg/kg po qd, day 7, individual animals): 163.81% and 154.57%
% Tumor Volume Change ([4]; PDAC G12D, BALB/c nude mice, 10 mg/kg po qd, day 14, individual animals): 89.27% and 198.15%
% Tumor Volume Change ([4]; PDAC G12D, BALB/c nude mice, 10 mg/kg po qd, day 17, individual animals): 109.93% and 119.08%
% Tumor Volume Change ([4]; PDAC G12D, BALB/c nude mice, 10 mg/kg po qd, day 21, individual animals): 193.02% and 99.24%
% Tumor Volume Change ([4]; PDAC G12D, BALB/c nude mice, 10 mg/kg po qd, day 24, individual animals): 160.39% and 128.81%
% Tumor Volume Change ([4]; PDAC G12D, BALB/c nude mice, 10 mg/kg po qd, day 28, individual animals): 162.11% and 110.97%
% Tumor Volume Change ([4]; PSN-1, BALB/c nude mice, 10 mg/kg po qd, day 0, individual animals): 179% and 166%
% Tumor Volume Change ([4]; PSN-1, BALB/c nude mice, 10 mg/kg po qd, day 3, individual animals): 154% and 97%
% Tumor Volume Change ([4]; PSN-1, BALB/c nude mice, 10 mg/kg po qd, day 7, individual animals): 134% and 82%
% Tumor Volume Change ([4]; PSN-1, BALB/c nude mice, 10 mg/kg po qd, day 10, individual animals): 126% and 70%
% Tumor Volume Change ([4]; PSN-1, BALB/c nude mice, 10 mg/kg po qd, day 14, individual animals): 117% and 66%
% Tumor Volume Change ([4]; PSN-1, BALB/c nude mice, 10 mg/kg po qd, day 17, individual animals): 116% and 65%
